16 compounds from PubChem BioAssay (NCI) can be followed below.

SMILES strings stand for the structures.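 Dose response: 5 concentrations. Exposure: 48 h. Format: 96-well plates. Endpoint: linear interpolation; highest concentration if not reached. The concentration for 50% growth inhibition is given as GI50. TGI: concentration producing complete growth inhibition.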

Holding throughout (assay): growth of human tumour cells (NCI), 48 h
The subject of experiment [1] is BT-549 breast.
Experiment [2] has as its system CAKI-1 renal.
The test system of experiment [3] is HL-60(TB) leukemia.
In experiment [4] the test system is IGROV1 ovarian.
Experiment [5] concerns MALME-3M melanoma.
The subject of experiment [6] is MCF7 breast.
In experiment [7] the test system is MDA-MB-435.
For experiment [8], the system named is NCI/ADR-RES ovarian.
Experiment [9] relates to OVCAR-3 ovarian.
For experiment [10], the system named is OVCAR-8 ovarian.
Experiment [11] concerns SF-268 CNS.
Experiment [12] relates to SK-MEL-28 melanoma.
In experiment [13] the test system is SK-MEL-5 melanoma.
In experiment [14] the test system is SW-620 colon.
Experiment [15] has as its system U251 CNS.
The test system of experiment [16] is UACC-62 melanoma.
Experiment [17] deals with UO-31 renal.
Experiment [18] has as its system MOLT-4 leukemia.

In the case of `CN(C)CCCc1cccnc1`, the TGI in experiment [1], in experiment [2], in experiment [3], in experiment [4], in [5] and in experiment [6] was above 100 µM in each case. The TGI in experiment [7], in experiment [8], in experiment [9], in experiment [10], in experiment [11] and in experiment [12] was above 100 µM each time. Moreover, the TGI in experiment [13], in experiment [14], in experiment [15], in experiment [16] and in experiment [17] was above 100 µM throughout.
Consider `O/N=C(\C=N\O)c1ccc2c(c1)Sc1ccccc1O2`, for which the TGI in experiment [1] is 40.7 µM; in experiment [2], 61.1 µM; in [3], 59.8 µM; in experiment [5] it was 72.5 µM; in [6] it was 40.6 µM; in [7], 33.9 µM. Also, the TGI in experiment [18] came out at 32.7 µM; in [9], 48.8 µM; in [10] it was 74.8 µM; in experiment [11], 38.4 µM; in experiment [12] it was 75.3 µM; in experiment [14] it was 78.7 µM. The TGI turned out to be 98.7 µM in [15], 37.7 µM in experiment [16] and 54 µM in experiment [17].
Turning to `CC(C)=CCC[C@](C)(O)[C@H]1CC[C@]2(C)[C@@H]1[C@H](O)C[C@@H]1[C@@]3(C)CC[C@H](O[C@@H]4O[C@H](CO)[C@@H](O)[C@H](O)[C@H]4O)C(C)(C)[C@@H]3CC[C@]12C`, the TGI in experiment [1] was 34.3 µM; in [2] it was 34.2 µM; in experiment [3] it was 45.8 µM; in experiment [4] it was 29.8 µM; in experiment [5], 34.6 µM; in [6], 32.2 µM. Besides, the TGI stood at 36.1 µM in experiment [7]; 34.8 µM in [18]; 55.1 µM in experiment [8]; 32 µM in [9]; 33.6 µM in experiment [10]; 29.3 µM in experiment [11]. Moreover, the TGI stood at 34.8 µM in experiment [12]; 32.1 µM in experiment [13]; 36.6 µM in experiment [14]; 35.2 µM in experiment [15]; 31 µM in experiment [16]; 31.1 µM in [17].
On to `CC(N)C(=O)c1ccc(O)cc1` (centres undefined), for which the TGI in experiment [2], in experiment [3], in experiment [4], in [5], in experiment [18] and in experiment [9] was above 100 µM each time. The TGI in experiment [10], in experiment [11], in [12], in experiment [13], in experiment [14] and in [15] was above 100 µM in each case. Besides, the TGI in experiment [16] and in experiment [17] was above 100 µM each time.
`COc1cc(C2c3cc4c(cc3OC3(O)COC(=O)C23)OCO4)cc(OC)c1OC` (centres undefined): the TGI in [2] was above 100 µM; in experiment [3] it was 97.7 µM; in [4], above 100 µM; in experiment [5] it was above 100 µM; in [18], above 100 µM; in experiment [9] it was above 100 µM. Moreover, the TGI in experiment [10], in [11], in [14], in [15], in experiment [16] and in experiment [17] was above 100 µM each time.
Consider `Nc1ccc2cc(S(=O)(=O)O)cc(O)c2c1N=Nc1ccc(NC(=O)Nc2ccc(N=Nc3c(N)ccc4cc(S(=O)(=O)O)cc(O)c34)c(S(=O)(=O)O)c2)cc1S(=O)(=O)O`, for which the TGI in experiment [3], in experiment [4], in experiment [5], in [6], in experiment [18] and in experiment [8] was above 100 µM throughout. Moreover, the TGI in experiment [9], in experiment [10], in [11], in experiment [12], in experiment [13] and in [14] was above 100 µM each time. Besides, the TGI in [15], in experiment [16] and in experiment [17] was above 100 µM each time.
Take `COc1nc(/C=N/NC(N)=S)nc(OC)n1`: the TGI in experiment [2], in experiment [3], in experiment [4], in [5], in [18] and in experiment [9] was above 100 µM each time. Moreover, the TGI in [10], in [11], in experiment [12], in experiment [14], in [15] and in experiment [16] was above 100 µM in each case. The same compound registered a TGI in experiment [17] above 100 µM.
Consider `CCc1ccc(CCC(=O)O)nc1`, for which the TGI in [1], in [2], in [3], in experiment [4], in [5] and in experiment [6] was above 100 µM each time. Further, the TGI in experiment [7], in [8], in experiment [9], in [10], in [11] and in experiment [12] was above 100 µM in each case. The TGI in experiment [13], in experiment [14], in experiment [15], in experiment [16] and in experiment [17] was above 100 µM each time.
On to `COc1ccc2c(C)cc(N/N=C/c3sccc3C)nc2c1`, for which the TGI in experiment [1] is 28.9 µM; in experiment [3], above 100 µM; in experiment [4] it was 27.4 µM; in experiment [5], 20.8 µM; in experiment [6] it was 26.1 µM; in experiment [7], 35.4 µM. The TGI in experiment [18] was 48.6 µM; in experiment [8], 26.2 µM; in experiment [9] it was 10.6 µM; in experiment [10] it was 30.3 µM; in experiment [11], 85.9 µM; in experiment [12] it was 35.8 µM. Besides, the TGI in experiment [13] worked out at 18.9 µM; in experiment [14], 69.4 µM; in [15] it was 51.9 µM; in experiment [16], 34.9 µM; in [17], 54.8 µM.
Regarding `CCOc1ccc(C2=C(Cl)c3cc(OC)c(OC)cc3C2Cl)cc1` (centres undefined), the TGI in experiment [2] was above 100 µM; in [3], 49.4 µM; in experiment [4] it was above 100 µM; in [5], above 100 µM; in experiment [18] it was 78.4 µM; in [9], above 100 µM. In addition, the TGI is above 100 µM in [10]; above 100 µM in experiment [11]; above 100 µM in experiment [12]; 39.3 µM in [13]; above 100 µM in [14]; 39.8 µM in experiment [15]. Moreover, the TGI in experiment [16] and in experiment [17] was above 100 µM each time.
As for `Cc1c2ccccc2c(CO)c2cc(F)c3ccccc3c12`, the TGI in experiment [2] is 79.4 µM; in experiment [3] it was 61 µM; in experiment [4], 63.7 µM; in [5], above 100 µM; in experiment [18] it was 39.6 µM; in experiment [9] it was 61.3 µM. In addition, the TGI in [10] was 41.4 µM; in experiment [11], 71.2 µM; in experiment [12], above 100 µM; in [13], above 100 µM; in experiment [14], above 100 µM; in experiment [15] it was 50.3 µM. Moreover, the TGI in experiment [16] and in [17] was above 100 µM in each case.
`CN1C[C@H]2[C@@H](C1=O)[C@H](c1ccc([N+](=O)[O-])cc1)ON2C`: the TGI in experiment [2], in experiment [3], in experiment [4], in [6], in experiment [7] and in experiment [18] was above 100 µM in each case. Besides, the TGI in [8], in experiment [9], in experiment [10], in experiment [12], in [13] and in experiment [14] was above 100 µM throughout. Also, the TGI in experiment [15] and in experiment [17] was above 100 µM each time.
Take `O=C1ON(Cc2ccccc2)C(c2ccccc2)N1c1ccccc1` (centres undefined): the TGI in [3], in [4], in experiment [5], in experiment [6], in experiment [18] and in [8] was above 100 µM throughout. Further, the TGI in experiment [9], in experiment [10], in [11], in experiment [12], in experiment [13] and in [14] was above 100 µM in each case. Further, the TGI in experiment [15], in [16] and in experiment [17] was above 100 µM throughout.
`COc1cc(C2C(Cl)C(=O)N2NC(=O)c2ccc(NC(C)=O)cc2)cc(Br)c1O` (centres undefined): the TGI in experiment [3], in [4], in experiment [5], in experiment [18], in experiment [9] and in [10] was above 100 µM in each case. Moreover, the TGI in experiment [11], in [12], in experiment [13], in [14], in experiment [15] and in [16] was above 100 µM each time. The TGI in experiment [17] was above 100 µM.
For the compound `CCCCCCNC(=O)c1cc(C#Cc2cc(OC)ccc2OC)ccc1OC`, the TGI in experiment [1] is above 100 µM; in experiment [2] it was above 100 µM; in experiment [4], above 100 µM; in experiment [6], above 100 µM; in experiment [7] it was 13.4 µM; in experiment [18], above 100 µM. Further, the TGI in experiment [8], in experiment [9], in [10], in experiment [11], in experiment [12] and in [13] was above 100 µM in each case. The TGI in experiment [14], in experiment [15], in experiment [16] and in experiment [17] was above 100 µM each time. Besides, the results for the GI50 in [9] and in experiment [16] were above 100 µM and 56.8 µM, respectively.
For the compound `c1ccc2c(c1)ccc1ncccc12`, the TGI in [1], in experiment [2], in experiment [3], in experiment [4], in [5] and in [6] was above 100 µM throughout. The TGI in experiment [7], in experiment [18], in experiment [8], in [9], in [10] and in [11] was above 100 µM each time. The TGI in experiment [12], in experiment [13], in [14], in experiment [15], in experiment [16] and in [17] was above 100 µM each time.
